# Source: patent publication EP0063525A1, “Dibenzazepine tetracyclic derivatives, process for their preparation and pharmaceutical compositions containing them” (CENTRE NATIONAL DE LA RECHERCHE SCIENTIFIQUE (CNRS), priority 1981, dated 1982)
# Like-named read-outs stand apart in the source and are kept apart here.
# Key:
# Souris [1] = assay: antireserpine activity: reserpine hypothermia; type: in vivo; settings: réserpine 5 mg/kg i.p. 17 h before
# Procedure: On note ensuite les températures témoins (réserpine), puis les températures 1, 2, 3 et 4 heures après l'administration des produits étudiés.
# Les animaux sont répartis en lots de 4 animaux et reçoivent par voie intrapéritonéale la réserpine à une dose de 5 mg/kg. 17 heures après cette injection, on mesure la température corporelle de l'animal à l'aide d'une sonde thermocouple introduite dans le rectum; chaque lot reçoit ensuite la substance par voie intrapéritonéale. Le lot témoin reçoit la même quantité de solvant et par la même voie. La température corporelle est ensuite mesurée toutes les heures pendant 4 heures.
# Les résultats sont rassemblés dans un tableau récapitulatif-où sont indiqués : • - la température moyenne pour chaque lot relevée 17 heures après l'injection de la réserpine, • - la moyenne des variations de température pour chaque lot relevées 1,2, 3 et 4 heures après l'injection de la substance étudiée, • - la somme des variations de températures pendant 4 heures, • - le pourcentage d'augmentation de la température pour chaque produit par rapport aux témoins.
# Souris [2] = assay: tetrabenazine hypothermia; type: in vivo
# Procedure: (§1) Ce test permet de révéler également une activité antidépressive avec l'avantage d'une lecture plus rapide qu'avec la réserpine.
# Les produits sont injectés 30 minutes avant l'administration de tétrabénazine.
# Les températures sont relevées aux temps : 0, 30 minutes, 60 minutes, 90 minutes et 120 minutes.
# (§2) Les souris sont réparties par lots de 5.
# Les températures sont relevées avant l'injection de tétrabénazine, 30 minutes, 60 minutes, 90 minutes et 120 minutes après.
# (§3) Le lot témoin comprend 20 souris.
# souris femelles = assay: acute toxicity in the mouse, intraperitoneal; type: in vivo; settings: voie intrapéritonéale
# Source text: (§4) Les produits ont été administrés par voie intrapéritonéale à des souris femelles dont le poids variait de 18 à 30 g.
# (§5) Les animaux injectés ont été maintenus dans une salle thermostatée, nourris et abreuvés à volonté.
# (§6) La mortalité a été relevée à 1 heure, 4 heures, 24 heures et 48 heures.
# Souris [3] = assay: tetrabenazine ptosis; type: in vivo
# Procedure: as §1, §2
# Le ptosis est noté avant l'injection de tétrabénazine, 30 minutes, 60 minutes, 90 minutes et 120 minutes après.
# On a adopté la notation suivante : • - 0 : pour un oeil ouvert, • - 1 : pour un oeil fermé au quart, • - 2 : pour un oeil fermé à moitié, • - 3 : pour un oeil fermé aux trois-quarts, • - 4 : pour un oeil fermé complètement.
# as §3
# [4] = acute toxicity in the mouse, intraperitoneal; type: in vivo, Souris; settings: mouse, in vivo, ip, voie intrapéritonéale; for mortality at 48 h: read-out: Mortalité %
# Source text: as §4, §5, §6
# [5] = product i.p. 80 mg/kg 30 min before tétrabénazine 32 mg/kg i.v.
# [6] = 200 mg/kg, dead mice of the group
# [7] = 300 mg/kg, dead mice of the group
# [8] = 750 mg/kg, dead mice of the group
# [9] = 1500 mg/kg, dead mice of the group
# [10] = product i.p. 150 mg/kg 30 min before tétrabénazine 32 mg/kg i.v.
# [11] = product i.p. 150 mg/kg 30 min before tétrabénazine 32 mg/kg i.v., score 0-4 per eye
# [12] = 50 mg/kg, dead mice of the group
# [13] = 100 mg/kg, dead mice of the group
# [14] = product i.p. 50 mg/kg 30 min before tétrabénazine 32 mg/kg i.v.
# [15] = product i.p. 50 mg/kg 30 min before tétrabénazine 32 mg/kg i.v., score 0-4 per eye
compound,measurement,setting,value
"O=C(O)CCCCCCNC1c2ccccc2CCc2ccccc21 [Aminep-tine, amineptine, reference compound]",variation de température T=1h,Souris [1]; product i.p. 80 mg/kg,"+1,5"
same,variation de température T= 2h,Souris [1]; product i.p. 80 mg/kg,"+1,6"
same,variation de température T=3h,Souris [1]; product i.p. 80 mg/kg,+1
same,variation de température T=4h,Souris [1]; product i.p. 80 mg/kg,"+0,1"
same,inhibition in vivo at 80 mg/kg,"Souris [2]; ip, 2 h, hypothermie, product i.p. 80 mg/kg 30 min before tétrabénazine 32 mg/kg i.v., read-out: % de protection",51%
same,Température après tétrabénazine 30 minutes,Souris [2]; [5],"-1,8"
same,Température après tétrabénazine 60 minutes,Souris [2]; [5],"-1,8"
same,Température après tétrabénazine 90 minutes,Souris [2]; [5],"-1,1"
same,Température après tétrabénazine 120 minutes,Souris [2]; [5],"-0,2"
same,Température après tétrabénazine Total,Souris [2]; [5],"-4,2"
"( [1'-(β-hydroxyéthyl-4') pipérazinyl]-3propyl)-8 diphényl-1,3 tétrahydro-1,3a, 8,12b(dibenzo[b,f] pyrazolo [3,4-d])azépine [compound 10]",% d'augmentation par rapport aux témoins,Souris [1]; product i.p. 150 mg/kg,205%
same,variation de température T= 2h,Souris [1]; product i.p. 150 mg/kg,"+2,4"
same,variation de température T=3h,Souris [1]; product i.p. 150 mg/kg,"+1,4"
same,variation de température T=4h,Souris [1]; product i.p. 150 mg/kg,"+0,6"
same,DL 50,"souris femelles; souris femelles, 2880 min",>750 mg/kg
same,Mortalité %,"souris femelles; 200 mg/kg, 2880 min",0%
same,Mortalité en 1 heure,souris femelles; [6],0
same,Mortalité en 48 h.,souris femelles; [6],0
same,Mortalité %,"souris femelles; 300 mg/kg, 2880 min",0%
same,Mortalité en 1 heure,souris femelles; [7],0
same,Mortalité en 48 h.,souris femelles; [7],0
same,Mortalité %,"souris femelles; 750 mg/kg, 2880 min",0%
same,Mortalité en 1 heure,souris femelles; [8],0
same,Mortalité en 48 h.,souris femelles; [8],0
same,Mortalité en 1 heure,souris femelles; [9],0
same,Mortalité en 48 heures,souris femelles; [9],1
same,% de protection,"Souris [2]; hypothermie, product i.p. 150 mg/kg 30 min before tétrabénazine 32 mg/kg i.v.",53%
same,Température après tétrabénazine 30 minutes,Souris [2]; [10],"-1,7"
same,Température après tétrabénazine 60 minutes,Souris [2]; [10],"-1,9"
same,Température après tétrabénazine 90 minutes,Souris [2]; [10],"+0,6"
same,Température après tétrabénazine 120 minutes,Souris [2]; [10],-1
same,Température après tétrabénazine Total,Souris [2]; [10],-4
same,Ptosis Total,Souris [3]; [10],"20,8"
same,Ptosis 30 minutes,Souris [3]; [11],1
same,Ptosis 60 minutes,Souris [3]; [11],6
same,Ptosis 90 minutes,Souris [3]; [11],"5,8"
same,Ptosis 120 minutes,Souris [3]; [11],8
same,Ptosis T = 0,"Souris [3]; product i.p. 150 mg/kg, before tétrabénazine, score 0-4 per eye",0
same,% de protection,"Souris [3]; ptosis, product i.p. 150 mg/kg 30 min before tétrabénazine 32 mg/kg i.v.",31%
"CN(C)CCN1c2ccccc2C=Cc2ccccc21 [compound 20, (β-diméthylaminoéthyl)-5 dibenzo [b,f] 5H azépine, reference compound]",change in vivo at 50 mg/kg,"Souris [1]; ip, 4 h, product i.p. 50 mg/kg, read-out: % d'augmentation par rapport aux témoins",440%
same,Augmentation de température en 4 h,Souris [1]; product i.p. 50 mg/kg,"+10,8"
same,variation de température T= 2h,Souris [1]; product i.p. 50 mg/kg,"+2,7"
same,variation de température T=3h,Souris [1]; product i.p. 50 mg/kg,+2
same,variation de température T=4h,Souris [1]; product i.p. 50 mg/kg,+1
same,LD50 at 48 h,"[4]; souris femelles, read-out: DL 50",75 mg/kg
same,mortality at 48 h,[4]; 50 mg/kg,0%
same,mortality at 48 h,[4]; 100 mg/kg,60%
same,mortality at 48 h,[4]; 200 mg/kg,100%
same,Mortalité en 1 heure,souris femelles; [12],0
same,Mortalité en 48 h.,souris femelles; [12],0
same,Mortalité en 1 heure,souris femelles; [13],3
same,Mortalité en 48 h.,souris femelles; [13],3
same,Mortalité en 1 heure,souris femelles; [6],5
same,Mortalité en 48 h.,souris femelles; [6],5
same,inhibition in vivo at 50 mg/kg,"Souris [2]; ip, 2 h, hypothermie, product i.p. 50 mg/kg 30 min before tétrabénazine 32 mg/kg i.v., read-out: % de protection",46%
same,Température après tétrabénazine 30 minutes,Souris [2]; [14],"-3,1"
same,Température après tétrabénazine 60 minutes,Souris [2]; [14],"-0,2"
same,Température après tétrabénazine 90 minutes,Souris [2]; [14],"-0,3"
same,Température après tétrabénazine 120 minutes,Souris [2]; [14],-1
same,Température après tétrabénazine Total,Souris [2]; [14],"-4,6"
same,inhibition in vivo at 50 mg/kg,"Souris [3]; ip, 2 h, ptosis, product i.p. 50 mg/kg 30 min before tétrabénazine 32 mg/kg i.v., read-out: % de protection",60%
same,Ptosis Total,Souris [3]; [14],"12,2"
same,Ptosis 30 minutes,Souris [3]; [15],"2,2"
same,Ptosis 60 minutes,Souris [3]; [15],"3,4"
same,Ptosis 90 minutes,Souris [3]; [15],"3,2"
same,Ptosis 120 minutes,Souris [3]; [15],"3,6"
